Test results reported in paper PMC9782510, “Natural Antioxidants, Tyrosinase and Acetylcholinesterase Inhibitors from Cercis glabra Leaves” (Molecules, 2022).

Experiments:
[1] = PTIO radical scavenging assay
Method: The PTIO radical scavenging activity was assayed by referring to relevant methods. Briefly, PTIO radical solid (3 mg) was dissolved in 20 mL of methanol, and sample solution and PTIO methanol solution (40 µL:160 µL) were added to a 96-well microplate. The absorbance was determined at 585 nm using a microplate reader after 30 min of incubation and the scavenging rate was calculated on the basis of Equation (2). (2) PTIO radical scavenging activity (%) =[1−AS/AC]×100 where AS is the absorbance of the compounds to be tested and AC is the absorbance of the untreated control.

[2] = ABTS radical scavenging assay
Method: The ABTS radical scavenging assay was modified according to the method with slight modifications. Briefly, the ABTS radical cation was obtained by mixing ABTS diammonium salt stock solution (7.4 mM) with potassium persulfate (2.6 mM) in equal proportion and reacting it at 37 °C in darkness for 12–16 h. Before used, the absorbance of light green ABTS radical test solution at 745 nm was controlled to be 0.70 ± 0.02 by diluting with methanol. Sample solution and ABTS methanol solution (10 µL:190 µL) were added to 96-well microplate, and L-ascorbic acid was the positive control. After incubation at 37 °C for 10 min, the absorbance was tested at 745 nm using a microplate reader. Scavenging rate was calculated according to Equation (1). (1) ABTS radical scavenging activity (%) =AC–AS/AC×100 where AC and AS are the absorbance of the blank control and the compounds to be tested, respectively.

mushroom tyrosinase = assay: Mushroom tyrosinase inhibitory activity (L-tyrosine substrate); format: biochemical; conditions: for Tyrosinase Inhibition (%): at initial concentration of 1 mg/mL, means ± SEMs; for IC50: read-out: Tyrosinase inhibition IC50
Method: Mushroom tyrosinase (400 U/mL) and L-tyrosine (3 mM) were added separately in 0.05 M potassium phosphate buffer (pH 6.5). A total of 80 µL of potassium phosphate buffer (pH 6.5), 80 µL of L-tyrosine (3 mM) solution, 20 µL of sample solution and 20 µL of mushroom tyrosinase (400 U/mL) were added to a 96-well microplate. The mixture reacted for 1 h at 37 °C. […] The absorbance was measured at 490 nm using a microplate reader and Equation (3) was used to calculate the inhibition rate. (3) Tyrosinase inhibition activity (%) =AC–AS/AC×100
Equation (3) is the absorbance of the test compound and AC is the absorbance of the untreated control.

[3] = target: Acetylcholinesterase (AChE) (Electrophorus electricus, UniProt O42275); assay: Acetylcholinesterase inhibitory activity (ATCI/DTNB); format: biochemical; conditions: for inhibition at 1000 µg/mL: read-out: Acetylcholinesterase Inhibition (%)
Sequence of Acetylcholinesterase (AChE) (O42275 24-633): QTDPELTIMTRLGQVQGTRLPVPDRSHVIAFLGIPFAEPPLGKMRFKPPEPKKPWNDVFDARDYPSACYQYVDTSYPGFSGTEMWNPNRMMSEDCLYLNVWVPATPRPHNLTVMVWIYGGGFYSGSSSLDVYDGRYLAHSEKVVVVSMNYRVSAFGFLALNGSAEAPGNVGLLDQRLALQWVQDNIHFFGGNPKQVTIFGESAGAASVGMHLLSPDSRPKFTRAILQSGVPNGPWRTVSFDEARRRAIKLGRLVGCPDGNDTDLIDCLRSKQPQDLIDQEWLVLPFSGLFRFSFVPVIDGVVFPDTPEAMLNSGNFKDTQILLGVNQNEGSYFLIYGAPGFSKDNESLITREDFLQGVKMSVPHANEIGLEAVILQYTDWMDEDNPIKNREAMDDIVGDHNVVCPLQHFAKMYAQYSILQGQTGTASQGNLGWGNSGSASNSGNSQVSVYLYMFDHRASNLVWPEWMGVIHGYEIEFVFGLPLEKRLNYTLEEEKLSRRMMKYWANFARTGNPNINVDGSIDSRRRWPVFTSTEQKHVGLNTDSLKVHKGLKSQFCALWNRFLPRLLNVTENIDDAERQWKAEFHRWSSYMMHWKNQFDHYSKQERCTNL
Method: The experiment of acetylcholinesterase inhibition activity was slightly modified according to the literature [55]. Acetylcholinesterase (AChE) and acetylthiocholine iodide (ATCI) were dissolved in 0.1 M phosphate buffer (pH 8.0). 5,5′-Dithiobis-(2-nitrobenzoic acid) (DTNB) was prepared in 10 mL of 0.1 M phosphate buffer (pH 7.0) with a small amount of NaHCO3. A total of 120 µL of 0.1 M phosphate buffer (pH 8.0), 20 µL of 3 mM DTNB solution, 20 µL of sample solution and 20 µL of AChE (0.2 U/mL) were sequentially added to the 96-well microplate, and the mixture reacted for 10 min at 37 °C. The reaction was started by adding 20 µL of 3 mM ATCI and the mixture was incubated at 37 °C for 20 min. Donepezil was chosen as the positive control. […] (4) Acetylcholinesterase inhibition activity (%) =[1−(AS–Aj)/AC]×100 where As and Aj are the absorbance of the compound to be tested and tested compound blanks, respectively, and AC is the absorbance of the untreated control.

[4] = DPPH radical scavenging assay
Method: The scavenging ability on DPPH radical was conducted based on the method with some modifications. The sample solution and DPPH methanol solution (20 µL:180 µL) were added to a 96-well microplate. L-ascorbic acid was the positive control. The absorbance at 517 nm was measured using a microplate reader after the solution had stood for 30 min at 37 °C under dark conditions. The calculation formula of DPPH radical scavenging activity is consistent with the formula of ABTS radical scavenging activity.

Row | Molecule | IC50 [1] | IC50 [2] | Tyrosinase Inhibition (%) (mushroom tyrosinase) | IC50 (mushroom tyrosinase) | inhibition at 1000 µg/mL [3] | IC50 [4] | Acetylcholinesterase Inhibition (%) ([3]; at initial concentration of 1 mg/mL, means ± SEMs) | IC50 ([3]; read-out: Acetylcholinesterase inhibition IC50)
1 | C[C@@H]1O[C@@H](Oc2c(-c3cc(O)c(O)c(O)c3)oc3cc(Oc4cc(O)c5c(=O)c(O[C@@H]6O[C@@H](C)[C@H](O)[C@@H](O)[C@H]6O)c(-c6cc(O)c(O)c(O)c6)oc5c4)cc(O)c3c2=O)[C@H](O)[C@H](O)[C@H]1O [Compound 10, myricetin-3-O-rhamnoside-(C7-I-O-C7-II)-myricetin-3-O-rhamnoside] | 530 µM | 45 µM | 66.04 ± 0.62% | 650 µM | 61.3 ± 0.38% | 560 µM |  | 
2 | COc1cc(-c2oc3cc(O)cc(O)c3c(=O)c2O)ccc1O [Compound 4, isorhamnetin] | 44300 µM | > 500 µM | 44.17 ± 0.85% | 4690 µM | 68.13 ± 0.24% | 6250 µM |  | 
3 | kaempferol-3-O-rutinoside [Compound 9] | 27600 µM | > 500 µM | 23.54 ± 1.04% |  |  | > 100000 µM | 39.90 ± 0.33% | > 1000 µM
4 | COC(=O)[C@H](O)[C@@H](OC(=O)/C=C/c1ccc(O)cc1)C(=O)O [Compound 2, (2′R, 3′R)-trans-4-coumaroyl-4′-methoxyl-tartaric acid] | > 100000 µM | > 500 µM | 53.54 ± 0.90% | 2590 µM | 39.46 ± 0.25% | > 100000 µM |  | 
5 | COC(=O)C[C@H]1CCC(=O)[C@H]1C/C=C\CCO[C@@H]1O[C@H](CO)[C@@H](O)[C@H](O)[C@H]1O [Compound 14, methyl-β-D-glucopyranosyl tuberonate] | > 100000 µM | > 500 µM | 37.71 ± 0.56% |  | 47.18 ± 0.16% | > 100000 µM |  | 
6 | O=C1O[C@H]([C@@H](O)CO)C(O)=C1O [L-ascorbic acid, reference compound] | 1610 µM | 156 µM |  |  |  | 440 µM |  | 
7 | CC[C@H](CC[C@@H](C)[C@H]1CC[C@H]2[C@@H]3CC=C4C[C@@H](O[C@@H]5O[C@H](CO)[C@@H](O)[C@H](O)[C@H]5O)CC[C@]4(C)[C@H]3CC[C@]12C)C(C)C [Compound 11] | > 100000 µM | > 500 µM | 29.79 ± 0.88% | 8840 µM | 40.8 ± 0.41% | > 100000 µM |  | 
8 | O=c1c(O)c(-c2ccc(O)c(O)c2)oc2cc(O)cc(O)c12 [Compound 5, quercetin] | 6360 µM | 97 µM | 77.29 ± 1.52% |  | 83.65 ± 0.48% | 590 µM |  | 
9 | COC(=O)[C@@H](O)[C@H](OC(=O)/C=C/c1ccc(O)cc1)C(=O)OC [Compound 1, (2′S, 3′S)-trans-4-coumaroyltartaric acid dimethyl ester] | > 100000 µM | > 500 µM | 53.13 ± 0.65% | 2630 µM | 38.43 ± 0.2% | > 100000 µM |  | 
10 | O=C(O)c1cc(O)c(O)c(O)c1 [Compound 13, gallic acid] | > 100000 µM | 179 µM | 80.00 ± 0.78% | 590 µM | 71.74 ± 0.4% | 770 µM |  | 
11 | C[C@@H]1O[C@@H](Oc2c(-c3ccc(O)cc3)oc3cc(O)cc(O)c3c2=O)[C@H](O)[C@H](O)[C@H]1O [Compound 7, afzelin] | > 100000 µM | > 500 µM | 32.71 ± 1.51% | 9240 µM |  | > 100000 µM |  | 
12 | O=C1c2c(O[C@@H]3O[C@H](CO)[C@@H](O)[C@H](O)[C@H]3O)cc(O)cc2OC1(O)Cc1ccc(O)cc1 (stereo partly drawn) [Compound 15, hovetrichoside C] | > 100000 µM | > 500 µM | 42.08 ± 0.54% | 4040 µM | 39.91 ± 0.36% | > 100000 µM |  | 
13 | O=c1c(O)c(-c2ccc(O)cc2)oc2cc(O)cc(O)c12 [Compound 6, kaempferol] | 14700 µM | 108 µM | 57.50 ± 0.82% | 1690 µM | 82.21 ± 0.09% | 590 µM |  | 
14 | CC(=O)CCc1ccc(O[C@@H]2O[C@H](CO)[C@@H](O)[C@H](O)[C@H]2O)cc1 [Compound 12, 4-(4′-Hydroxyphenyl)-2-butanone-4′-O-β-D-glucopyranoside] | > 100000 µM | > 500 µM | 35.63 ± 1.01% | 7470 µM | 39.8 ± 0.53% | 34900 µM |  | 
15 | C[C@@H]1O[C@@H](Oc2c(-c3ccc(O)c(O)c3)oc3cc(O)cc(O)c3c2=O)[C@H](O)[C@H](O)[C@H]1O [Compound 8, quercitrin] | > 100000 µM | > 500 µM | 39.17 ± 0.86% | 4960 µM | 40.11 ± 0.31% | 6560 µM |  | 
16 | O=c1c(O)c(-c2cc(O)c(O)c(O)c2)oc2cc(O)cc(O)c12 [Compound 3, myricetin] | 2560 µM | 94 µM | 60.00 ± 1.49% | 1390 µM | 85.27 ± 0.06% | 870 µM |  | 
